We go through 1 compound from PMC12463534, “Exploring the Anticancer Properties of 4-Phenylthiazole-Based Ru(II) and Os(II) Metallacycles Featuring 1-Methylimidazole as N-Donor Functionality” (Bioinorganic Chemistry and Applications, 2025).

Data set [1] is described as follows: Conditional stability constant of Ru-MeIm bond and speciation modelling (pH-dependent UV-vis, HypSpec). In kind it is physicochemical. As for the experimental part: Calculation was done with HypSpec software based on the pH-dependent UV–vis spectra recorded after 3 days (Figures S27, S28). With the help of the computed constant, it was possible to model the speciation at various concentrations. […] At pH 6.0, a condition more characteristic of solid tumor tissues, the MeIm ligand tends to dissociate to a greater extent and only 44% and 76% of the original complex is found in solution at 0.1 and 1 μM concentrations, respectively.
The average water ionization constant, pKw, was determined as 13.76 ± 0.01, which is in good agreement with literature data. The initial volume of the samples was 15.0 mL. The complex concentration was 100 or 157 μM at an ionic strength of I = 0.1 M (KCl). Samples were degassed by bubbling purified argon through them for about 10 min prior to the measurements, and the inert gas was also passed over the solutions during the titrations. 0.70-mL batch samples were collected between pH 1 and 11; these samples were kept in dark, and after 2 and 3 days, their pH was remeasured, and the UV–vis spectra were recorded as well. Only small differences were observed between the 2- and 3-day spectra, and always, the 3-day samples were used for further evaluation. The conditional stability constant for 3c was calculated based on the following equilibrium: [RuCym(N,C)(Z)]^(1+n) + MeIm ⇌ [RuCym(N,C) (MeIm)]^+ + Z^n; (Z = Cl^– or H2O; n = −1 or 0). The calculation was done with the HypSpec software. […] The calculated stability constant is a conditional value and applies for I = 0.1 M KCl ionic strength.

Data set [2] deals with HCT116 multicellular tumor spheroids (3D). In words: Resazurin assay, HCT116 3D multicellular tumor spheroids. The note with it: read-out: IC50 3D; HCT116 3D spheroids, resazurin assay, 96 h exposure. For orientation: Alamar Blue is a resazurin reagent that responds to reducing activity.
Experimental: Both models were investigated by the fluorimetric resazurin assay after 96-h exposure.
HCT116 colorectal carcinoma cells (RRID:CVCL_0291 from ATCC) were cultivated in McCoy's 5A medium, supplemented with 10% heat-inactivated fetal bovine serum and 4 mM L-glutamine.
For 2D experiments, HCT116 cells were harvested from culture flasks by trypsinization, seeded in 100-μL aliquots into 96-well microculture plates (CytoOne, TC-treated, from Starlab) in densities of 2 × 10^3 cells per well, and incubated for 24 h prior to exposure to the test compounds. […] Stock solutions of test compounds were prepared in DMF, which were then diluted in McCoy's 5A-supplemented medium (not to exceed a final content of 0.5% v/v of organic solvent in the test plates), and serial dilutions were added in aliquots of 100 μL per well. […] After incubation for 4 h, fluorescence was measured with a microplate reader (Bio-Tek, SynergyHT) at a wavelength of 530 nm, additionally using a reference wavelength of 620 nm.
Data set [3] is described as follows: Ruthenium levels in tissues by ICP-MS. In kind it is in vivo. The note with it: CT26-bearing mice, 2 h after last injection. As for the experimental part: Tumor-specific organs and blood serum, harvested from the other animals 2 h after the last injection (Figure 5(c)), were measured for the average ruthenium content by inductively coupled plasma mass spectrometry (ICP-MS) of tissue homogenates.
CT26 cells (5 × 10^5 cells in 50-μL serum-free medium) were injected subcutaneously (s.c.) into the right flank of 8–16-week-old BALB/c mice (Envigo Laboratories, San Pietro Al Natisone, Italy). After 3 days, therapy treatment started on five consecutive days for 2 weeks. Animals were treated i.p. with 50 mg/kg 1c and 3c (all dissolved in 10% DMSO in 0.9% NaCl, 12 mice per group). The solvent control animals received 10% DMSO in 0.9% NaCl. Every day, the animals were monitored for the overall health conditions and tumor size was measured regularly by caliper measurement. Tumor volumes (mm^3) were calculated using following formula: length × width^2/2. […] Tumor growth and possible side effects of the treatment were evaluated by daily recording the tumor size by caliper measurement and parameters of the animal's overall health conditions. In the tissue sampling arm at the experiment, the mice were sacrificed by cervical dislocation 2 h after the last treatment. Tumors as well as organs were collected. Additionally, blood was drawn and incubated for 25 min to allow blood clotting. To isolate serum and blood pellets, the blood was centrifuged for 10 min at 17,900 g at room temperature. The supernatant characterized as serum was transferred to a new tube and centrifuged again to remove residual red blood cells. All collected samples were stored at −20°C and further processed for platinum measurements via ICP-MS.
The ruthenium concentration was determined by ICP-MS analysis. Ruthenium and rhenium standards were derived from LabKings (LabKings B.V., The Netherlands). The total ruthenium content was determined with a quadrupole-based ICP-MS instrument Agilent 7800 (Agilent Technologies, Tokyo, Japan) equipped with the Agilent SPS 4 autosampler (Agilent Technologies, Tokyo, Japan) and a MicroMist nebulizer at a sample uptake rate of approximately 0.2 mL·min^−1. […] Argon was used as plasma gas (15 L·min^−1) and as carrier gas (∼1.08 L·min^−1). The integration time was set to 0.1 s, and measurements were performed in 6 replicates with 100 sweeps. Rhenium served as internal standard for ruthenium.

In the next data set the test system is SW480 cancer cells. In words: Cellular accumulation (ICP-MS) in SW480 cells. Particulars: 50 μM, 0.5% DMF in MEM, SW480, exposure time 2 h. As for the experimental part:
As the coordinated p-cym and leaving groups are present in all synthesized complexes, we focused on the differently substituted 4-phenylthiazoles for estimated changes in lipophilicity.
Cellular accumulation of the compounds was studied based on a method described previously with modifications. 1.8 × 10^5 SW480 cells per well were seeded in aliquots of 1 mL of complete MEM (see above) into 12-well plates (CytoOne, tissue culture treated, Starlab) and incubated at 37°C for 24 h. Then, cells were exposed for 2 h at 37°C to 50 μM solutions of the test compounds (containing 0.5% DMF) in fresh 0.5 mL of complete MEM upon exchange of the medium. Afterward, cells were washed three times with 1 mL PBS per well, lysed with 0.4 mL sub-boiled HNO3 per well for 1 h at room temperature, and 0.3 mL of each sample was diluted with 7.7 mL Milli-Q water. Adsorption/desorption controls were prepared in the same manner in cell-free wells. Ruthenium content was quantified by ICP-MS using an ICP-quadrupole MS Agilent 7800 instrument (Agilent Technologies, Waldbronn, Germany) as described previously.

Usually IC50 stands for the concentration needed to halve the response being measured. Take `Cc1ccc(C(C)C)cc1.Cn1cc[n+]([Ru-]2[c]3cc(S(C)(=O)=O)ccc3-c3csc[n+]32)c1.O=[N+]([O-])[O-]` [Compound 3c, [((3-κN)-1-Methylimidazole)(4-(4-(methylsulfonyl)phenyl)thiazolato-κN,κC2′)(η^6-p-cymene)ruthenium(II)] Nitrate]: the “Conditional stability constant logK′ of Ru(p-cym)-MeIm bond” value in data set [1] (I = 0.1 M KCl, 25°C, UV-vis spectra after 3 days, HypSpec) turned out to be 8.31 ± 0.03. The “Original complex found in solution” value in data set [1] (pH 6.0, 0.1 μM complex, modelled from logK′) turned out to be 44%. For the same compound, the “Original complex found in solution” value in data set [1] (pH 6.0, 1 μM complex, modelled from logK′) stood at 76%. Besides, in data set [1] (pH 7.4, 0.1 μM complex, modelled from logK′), the “Intact (nondissociated) complex fraction” value was determined as 78%. The “Stability of complex by modelled speciation” value in data set [1] (pH 7.4, 1 μM and 10 μM complex concentrations) is “stable”. Also, the IC50 in data set [2] amounted to 226 ± 36 µM. In addition, in data set [3], the “Ruthenium level in liver” value is on record as ~20 mg/kg and the “Ruthenium level in tumor” value is ~1 mg/kg. In the data set with SW480 cancer cells, the “Cellular accumulation, fg Ru/cell” value came to 4.6 ± 0.6 fg Ru/cell.
